We go through 14 compounds from patent US11111245B2, “Derivatives of N-cycloalkyl/heterocycloalkyl-4-(imidazo[1,2-a]pyridine)pyrimidin-2-amine as therapeutic agents” (Aucentra Therapeutics Pty Ltd, priority 2017, dated 2021).

The target in assay [1] is CDK9/T1 (Homo sapiens, UniProt P50750). Briefly: ADP Glo Kinase assay CDK9/T1. The assay is classed as biochemical. The note with it: CDK9T1; read-out: CDK inhibition, Ki (μM) CDK9T1. Put shortly:
(§1)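 ADP Glo luminescence, in-house: CDK4/D1, CDK6/D3 on RB-CTF substrate (Tris pH 7.5, MgCl2, DTT, BSA); CDK9/T1 on RBER-IRStide. Reaction 40 min, 37° C after ATP addition. 10-point 1:3 series, 10 μM to 0.5 nM. IC50 by 4-parameter logistic; Ki derived using ATP Km.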
For orientation: In ADP-Glo the light output rises with the ADP produced.

Assay [2] addresses CDK6/D3 (Homo sapiens, UniProt Q00534). Nature of the assay: ADP Glo Kinase assay CDK6/D3. It counts as biochemical. The note with it: CDK6D3; for remaining activity at 10 µM: compound at 10 μM, read-out: residual activity (%) at 10 μM CDK6D3; for Ki: read-out: CDK inhibition, Ki (μM) CDK6D3. In short, it runs like this:
as §1

Assay [3] relates to leukemia cell lines. Nature of the assay: Resazurin cell viability assay on leukemia cell lines (72 h growth inhibition, GI50). The note with it: Homo sapiens, MV4-11 cells. It counts as cell-based. Put shortly:
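Cells were exposed to compound, then viability was read by MTT (solid tumour lines) or resazurin reduction (leukaemia lines). Non-linear regression gave the concentration inhibiting 50% of cell growth.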
On the technique in general: Resazurin is reduced to fluorescent resorufin, in cell work by metabolically active cells.

Assay [4] deals with CDK4/D1 (Homo sapiens, UniProt P11802). Briefly: ADP Glo Kinase assay CDK4/D1. It counts as biochemical. Particulars: CDK4D1; for remaining activity at 10 µM: compound at 10 μM, read-out: residual activity (%) at 10 μM CDK4D1; for Ki: read-out: CDK inhibition, Ki (μM) CDK4D1. In short, it runs like this:
as §1

In assay [5] the target is T1, CDKs and other kinases (Homo sapiens, UniProt P50613).
T1 construct: other: CDK7H; residual activity (%) at 10 μM CDK7H; compound at 10 μM
Nature of the assay: Radiometric kinase assay (Eurofins Pharma Discovery or Reaction Biology Corporation Kinase Profiler). The assay is classed as biochemical. The note with it: CDK7H; for remaining activity at 10 µM: compound at 10 μM, read-out: residual activity (%) at 10 μM CDK7H; for Ki: read-out: CDK inhibition, Ki (μM) CDK7H. In short, it runs like this:
(§2)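 Other CDKs and further kinases were profiled externally by radiometric assay. In-house ADP Glo assays covered CDK4/D1 and CDK6/D3 (RB-CTF substrate, pH 7.5 Tris buffer with MgCl2, DTT, BSA) and CDK9/T1 (RBER-IRStide substrate), 40 min at 37° C.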

Assay [6] concerns the target T2, CDKs and other kinases (Homo sapiens, UniProt P24941).
T2 construct: other: CDK2A; residual activity (%) at 10 μM CDK2A; compound at 10 μM
Described as above. Particulars: CDK2A; for remaining activity at 10 µM: compound at 10 μM, read-out: residual activity (%) at 10 μM CDK2A; for Ki: read-out: CDK inhibition, Ki (μM) CDK2A. It counts as biochemical. Put shortly: as §2

Assay [7] concerns the target T3, CDKs and other kinases (Homo sapiens, UniProt P06493).
T3 construct: other: CDK1B; residual activity (%) at 10 μM CDK1B; compound at 10 μM
Described as above. The assay is classed as biochemical. The note with it: CDK1B; for remaining activity at 10 µM: compound at 10 μM, read-out: residual activity (%) at 10 μM CDK1B; for Ki: read-out: CDK inhibition, Ki (μM) CDK1B. Put shortly: as §2

CDK6/D3, sequence (Q00534 whole entry): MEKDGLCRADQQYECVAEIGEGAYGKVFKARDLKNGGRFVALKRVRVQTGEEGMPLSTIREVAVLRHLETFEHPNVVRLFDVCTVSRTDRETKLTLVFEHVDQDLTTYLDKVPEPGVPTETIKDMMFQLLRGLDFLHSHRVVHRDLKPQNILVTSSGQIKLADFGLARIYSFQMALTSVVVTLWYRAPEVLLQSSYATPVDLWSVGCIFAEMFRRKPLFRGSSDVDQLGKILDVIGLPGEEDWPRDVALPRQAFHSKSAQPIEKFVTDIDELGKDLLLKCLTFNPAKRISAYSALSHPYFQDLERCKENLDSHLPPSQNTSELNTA
CDK6/D3, sequence (P30281 whole entry partner): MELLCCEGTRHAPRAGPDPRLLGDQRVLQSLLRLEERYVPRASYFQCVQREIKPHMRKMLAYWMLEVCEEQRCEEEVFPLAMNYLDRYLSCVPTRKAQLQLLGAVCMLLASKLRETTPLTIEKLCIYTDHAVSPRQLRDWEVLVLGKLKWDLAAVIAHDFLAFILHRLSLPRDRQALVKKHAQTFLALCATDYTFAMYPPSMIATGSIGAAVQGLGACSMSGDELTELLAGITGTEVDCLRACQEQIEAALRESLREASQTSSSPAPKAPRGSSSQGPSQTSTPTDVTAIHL
T3 sequence (P06493 whole entry): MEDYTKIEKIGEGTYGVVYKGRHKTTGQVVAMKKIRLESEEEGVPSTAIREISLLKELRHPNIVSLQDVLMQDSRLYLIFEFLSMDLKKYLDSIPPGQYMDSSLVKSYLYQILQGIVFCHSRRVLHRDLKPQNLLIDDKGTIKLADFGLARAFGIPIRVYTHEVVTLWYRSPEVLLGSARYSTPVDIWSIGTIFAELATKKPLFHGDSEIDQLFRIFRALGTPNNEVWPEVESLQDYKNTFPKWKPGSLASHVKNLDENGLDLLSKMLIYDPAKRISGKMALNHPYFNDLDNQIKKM
CDK9/T1, sequence (P50750 whole entry): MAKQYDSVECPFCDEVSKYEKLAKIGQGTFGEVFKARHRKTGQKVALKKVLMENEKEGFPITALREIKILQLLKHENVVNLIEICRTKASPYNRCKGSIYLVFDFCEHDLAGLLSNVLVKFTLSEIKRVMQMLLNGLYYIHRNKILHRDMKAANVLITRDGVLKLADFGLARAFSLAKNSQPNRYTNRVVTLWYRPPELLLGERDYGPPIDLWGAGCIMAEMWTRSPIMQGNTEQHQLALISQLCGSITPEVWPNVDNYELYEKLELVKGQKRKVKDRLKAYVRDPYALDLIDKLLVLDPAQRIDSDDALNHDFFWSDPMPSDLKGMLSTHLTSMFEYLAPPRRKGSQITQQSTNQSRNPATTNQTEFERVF
CDK9/T1, sequence (O60563 whole entry partner): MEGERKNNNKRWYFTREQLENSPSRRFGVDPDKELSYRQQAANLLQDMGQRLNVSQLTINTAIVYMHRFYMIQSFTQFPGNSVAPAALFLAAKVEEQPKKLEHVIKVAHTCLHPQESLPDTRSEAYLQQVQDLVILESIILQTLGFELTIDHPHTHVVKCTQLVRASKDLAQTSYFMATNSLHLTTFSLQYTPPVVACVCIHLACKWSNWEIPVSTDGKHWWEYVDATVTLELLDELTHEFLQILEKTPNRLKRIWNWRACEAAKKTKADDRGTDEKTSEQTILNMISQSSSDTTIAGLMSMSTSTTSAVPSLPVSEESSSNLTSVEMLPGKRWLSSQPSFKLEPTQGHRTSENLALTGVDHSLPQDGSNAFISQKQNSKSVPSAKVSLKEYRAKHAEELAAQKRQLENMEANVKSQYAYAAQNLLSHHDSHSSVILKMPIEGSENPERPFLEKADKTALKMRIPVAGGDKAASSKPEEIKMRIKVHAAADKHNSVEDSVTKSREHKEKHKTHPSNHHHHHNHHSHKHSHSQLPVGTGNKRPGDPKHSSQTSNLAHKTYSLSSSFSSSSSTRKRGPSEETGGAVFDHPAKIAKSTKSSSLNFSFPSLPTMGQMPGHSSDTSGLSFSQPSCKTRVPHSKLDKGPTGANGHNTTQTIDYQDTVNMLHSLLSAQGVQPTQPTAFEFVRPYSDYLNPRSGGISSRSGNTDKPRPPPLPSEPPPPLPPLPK
CDK4/D1, sequence (P11802 whole entry): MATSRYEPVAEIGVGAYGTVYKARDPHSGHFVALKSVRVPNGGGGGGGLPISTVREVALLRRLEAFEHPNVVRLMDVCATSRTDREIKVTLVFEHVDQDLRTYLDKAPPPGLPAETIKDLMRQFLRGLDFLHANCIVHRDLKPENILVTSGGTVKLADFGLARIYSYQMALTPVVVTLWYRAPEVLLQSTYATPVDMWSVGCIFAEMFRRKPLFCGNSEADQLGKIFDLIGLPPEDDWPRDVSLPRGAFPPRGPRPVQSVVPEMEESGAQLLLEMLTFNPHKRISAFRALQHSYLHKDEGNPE
CDK4/D1, sequence (P24385 whole entry partner): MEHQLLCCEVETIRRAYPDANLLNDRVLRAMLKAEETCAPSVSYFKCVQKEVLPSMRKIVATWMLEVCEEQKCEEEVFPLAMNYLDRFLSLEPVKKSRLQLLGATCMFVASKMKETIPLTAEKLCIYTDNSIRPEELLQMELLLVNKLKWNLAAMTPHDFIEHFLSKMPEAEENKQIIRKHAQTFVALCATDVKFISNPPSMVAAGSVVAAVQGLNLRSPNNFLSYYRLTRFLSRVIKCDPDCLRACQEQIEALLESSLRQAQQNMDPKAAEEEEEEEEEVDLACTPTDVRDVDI
T1 sequence (P50613 whole entry): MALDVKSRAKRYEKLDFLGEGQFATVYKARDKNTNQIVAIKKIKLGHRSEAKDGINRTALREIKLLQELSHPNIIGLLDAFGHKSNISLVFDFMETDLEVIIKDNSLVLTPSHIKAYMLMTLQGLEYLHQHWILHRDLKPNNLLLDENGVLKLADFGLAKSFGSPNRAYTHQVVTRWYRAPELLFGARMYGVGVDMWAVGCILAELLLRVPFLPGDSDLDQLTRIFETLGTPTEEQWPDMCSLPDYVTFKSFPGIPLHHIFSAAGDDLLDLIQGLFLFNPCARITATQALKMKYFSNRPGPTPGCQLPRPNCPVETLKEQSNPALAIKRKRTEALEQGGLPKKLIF

The Ki is a dissociation constant, usually derived from enzyme kinetics or from competition with a known ligand. As a reminder, the GI50 is the concentration giving 50% growth inhibition. High values mean less potent growth inhibition, low ones more potent growth inhibition. As to `N[C@H]1CC[C@H](Nc2ncc(F)c(-c3cnc4ccc(-c5cccnc5)cn34)n2)CC1` [Compound 26, (1r,4r)-N^1-(5-Fluoro-4-(6-(pyridin-3-yl)imidazo[1,2-a]pyridin-3-yl)pyrimidin-2-yl)cyclohexane-1,4-diamine], the Ki in assay [1] was found to be 0.003 µM. Moreover, the remaining activity at 10 µM stood at 24% in assay [2]; 9% in assay [4]; 0% in assay [5]; 5% in assay [6]; 7% in assay [7]. Besides, in assay [3], the 50% growth inhibitory concentration (GI50) is less than 0.001 µM.
Take `N[C@H]1CC[C@H](Nc2ncc(F)c(-c3cnc4ccc(-c5ncccc5F)cn34)n2)CC1` [Compound 27, (1r,4r)-N^1-(5-Fluoro-4-(6-(3-fluoropyridin-2-yl)imidazo [1,2-a]pyridin-3-yl)pyrimidin-2-yl)cyclohexane-1,4-diamine]: in assay [1], the Ki turned out to be 0.003 µM. Further, the remaining activity at 10 µM in assay [2] was 15%; in assay [4], 4%; in assay [5], 2%; in assay [6] it was 4%; in assay [7], -1%. For the same compound, in assay [3], the GI50 was less than 0.001 µM.
As for `Fc1cnc(N[C@H]2CC[C@H](Nc3ccccn3)CC2)nc1-c1cnc2ccc(-c3ccccc3)cn12` [Compound 28, (1r,4r)-N^1-(5-Fluoro-4-(6-phenylimidazo[1,2-a]pyridin-3-yl)pyrimidin-2-yl)-N4-(pyridin-2-yl)cyclohexane-1,4-diamine], in assay [1], the Ki amounted to 0.85 µM. In addition, the remaining activity at 10 µM in assay [2] is 100%; in assay [4], 95%; in assay [5], 2%; in assay [6] it was 8%; in assay [7], 4%. For the same compound, it took 0.042 ± 0.017 µM to inhibit growth in assay [3] by half (GI50).
In the case of `Cc1cnc(N[C@H]2CC[C@H](N)CC2)nc1-c1cnc2ccc(-c3cccnc3)cn12` [Compound 29, (1r,4r)-N^1-(5-Methyl-4-(6-(pyridin-3-yl)imidazo[1,2-a]pyridin-3-yl)pyrimidin-2-yl)cyclohexane-1,4-diamine], the Ki in assay [1] is 0.051 µM; in assay [5], 2.73 µM; in assay [6], 1.83 µM; in assay [7], 3.57 µM. Besides, the remaining activity at 10 µM in assay [2] is 45%; in assay [4] it was 17%. Also, it took 0.101 ± 0.039 µM to inhibit growth in assay [3] by half (GI50).
For the compound `Cc1cnc(N[C@H]2CC[C@H](N)CC2)nc1-c1cnc2ccc(-c3ncccc3F)cn12` [Compound 30, (1r,4r)-N^1-(4-(6-(3-Fluoropyridin-2-yl)imidazo[1,2-a]pyridin-3-yl)-5-methylpyrimidin-2-yl)cyclohexane-1,4-diamine], the Ki in assay [1] amounted to 0.12 µM. Further, the remaining activity at 10 µM in assay [2] came to 39%; in assay [4] it was 17%; in assay [5] it was 13%; in assay [6], 49%; in assay [7], 67%. Moreover, the GI50 in assay [3] came to 0.017 ± 0.006 µM.
For orientation: residual activity means the signal under treatment as a percentage of the control signal. On to `Cc1cnc(N[C@H]2CC[C@H](N)CC2)nc1-c1cnc2ccc(Nc3ccccc3)cn12` [Compound 31, (1r,4r)-N^1-(5-Methyl-4-(6-(phenylamino)imidazo[1,2-a]pyridin-3-yl)pyrimidin-2-yl)cyclohexane-1,4-diamine], for which, in assay [1], the Ki came out at 0.018 µM. Also, the remaining activity at 10 µM amounted to 11% in assay [2], 13% in assay [5] and 32% in assay [7]. In assay [3], this compound came in with a GI50 of 0.005 ± 0.002 µM. Moreover, the residual activity at 10 µM in assay [4] came to 45%; in assay [6], 145%.
On to `Cc1cnc(N[C@H]2CC[C@H](N)CC2)nc1-c1cnc2ccc(NCc3ccc(F)cc3)cn12` [Compound 32, (1r,4r)-N^1-(4-(6-((4-Fluorobenzyl)amino)imidazo[1,2-a]pyridin-3-yl)-5-methylpyrimidin-2-yl)cyclohexane-1,4-diamine], for which the Ki in assay [1] is 0.094 µM; in assay [5] it was 5.39 µM; in assay [6], 0.63 µM; in assay [7], more than 10 µM. For the same compound, the remaining activity at 10 µM in assay [2] is 36%; in assay [4] it was 16%. In addition, growth in assay [3] was halved (GI50) at 0.066 ± 0.014 µM.
In the case of `Fc1cnc(N[C@H]2CC[C@H](NC3CCOCC3)CC2)nc1-c1cnc2ccccn12` [Compound 33, (1r,4r)-N^1-(5-Fluoro-4-(imidazo[1,2-a]pyridin-3-yl)pyrimidin-2-yl)-N4-(tetrahydro-2H-pyran-4-yl) cyclohexane-1,4-diamine], in assay [1], the inhibition constant Ki came to 0.022 µM. Also, the remaining activity at 10 µM in assay [2] worked out at 12%; in assay [4], 7%; in assay [5], 7%; in assay [6], 13%; in assay [7] it was 11%. Besides, it took 0.004 ± 0.001 µM to inhibit growth in assay [3] by half (GI50).
For `Cc1cnc(N[C@H]2CC[C@H](N)CC2)nc1-c1cnc2ccc(Nc3cccnc3)cn12` [Compound 34, (1r,4r)-N^1-(5-Methyl-4-(6-(pyridin-3-ylamino)imidazo [1,2-a]pyridin-3-yl)pyrimidin-2-yl)cyclohexane-1,4-diamine], the inhibition constant (Ki) came out at 0.005 µM in assay [1]; 1.05 µM in assay [2]; 2.8 µM in assay [4]; 2.24 µM in assay [5]; 0.09 µM in assay [6]; 2.16 µM in assay [7]. The GI50 in assay [3] worked out at 0.095 ± 0.031 µM.
Regarding `N[C@H]1CC[C@H](Nc2ncc(Cl)c(-c3cnc4ccc(-c5cccnc5)cn34)n2)CC1` [Compound 35, (1r,4r)-N^1-(5-Chloro-4-(6-(pyridin-3-yl)imidazo[1,2-a]pyridin-3-yl)pyrimidin-2-yl)cyclohexane-1,4-diamine], the Ki came to 0.007 µM in assay [1]; 0.394 µM in assay [2]; 0.79 µM in assay [4]; 0.27 µM in assay [5]; 0.26 µM in assay [6]; 0.88 µM in assay [7]. The compound also showed a GI50 in assay [3] of 0.011 ± 0.002 µM.
`N[C@H]1CC[C@H](Nc2ncc(Cl)c(-c3cnc4ccc(-c5ccncc5)cn34)n2)CC1` [Compound 36, (1r,4r)-N^1-(5-Chloro-4-(6-(pyridin-4-yl)imidazo[1,2-a]pyridin-3-yl)pyrimidin-2-yl)cyclohexane-1,4-diamine]: the Ki in assay [1] was 0.016 µM; in assay [5], 0.094 µM; in assay [6] it was 0.016 µM; in assay [7], 0.065 µM. The remaining activity at 10 µM in assay [2] turned out to be 48%; in assay [4], 4%. Further, the GI50 in assay [3] was 0.004 ± 0.001 µM.
As for `Cc1cnc(N[C@H]2CC[C@H](N)CC2)nc1-c1cnc2ccc(-c3ccncc3)cn12` [Compound 37, (1r,4r)-N^1-(5-Methyl-4-(6-(pyridin-4-yl)imidazo[1,2-a]pyridin-3-yl)pyrimidin-2-yl)cyclohexane-1,4-diamine], the inhibitory constant (Ki) in assay [1] worked out at 0.12 µM; in assay [5], 1.18 µM; in assay [6], 0.044 µM; in assay [7], 0.17 µM. Moreover, the remaining activity at 10 µM stood at 96% in assay [2] and 7% in assay [4]. The compound further yielded a GI50 in assay [3] of 0.013 ± 0.002 µM.
Take `N[C@H]1CC[C@H](Nc2ncc(Cl)c(-c3cnc4ccc(-c5cncnc5)cn34)n2)CC1` [Compound 38, (1r,4r)-N^1-(5-Chloro-4-(6-(pyrimidin-5-yl)imidazo[1,2-a]pyridin-3-yl)pyrimidin-2-yl)cyclohexane-1,4-diamine]: the Ki in assay [1] worked out at 0.065 µM; in assay [5], 0.58 µM; in assay [6] it was 0.91 µM; in assay [7], 2.56 µM. In addition, the remaining activity at 10 µM in assay [2] was determined as 80%; in assay [4], 0%. Besides, halving of growth in assay [3] (GI50) required 0.052 ± 0.011 µM.
In the case of `Cc1cnc(N[C@H]2CC[C@H](N)CC2)nc1-c1cnc2ccc(-c3cncnc3)cn12` [Compound 39, (1r,4r)-N^1-(5-Methyl-4-(6-(pyrimidin-5-yl)imidazo[1,2-a]pyridin-3-yl)pyrimidin-2-yl)cyclohexane-1,4-diamine], the inhibition constant Ki in assay [1] came out at 0.165 µM; in assay [5] it was 5.6 µM; in assay [6], 4.74 µM; in assay [7], 7.36 µM. The values for the remaining activity at 10 µM in assay [2] and in assay [4] were 100% and 36%, respectively. This compound also showed a GI50 in assay [3] of 0.082 ± 0.02 µM.
